# From US9901646B2, “Methods for induction of antigen-specific immune tolerance” (École Polytechnique Fédérale de Lausanne (EPFL), priority 2010, dated 2018)
# Where no end group is shown, it is not given here. 8‑arm PEG = 8-arm polyethylene glycol (PEG) dendrimer, conjugated via pyridyldisulfide groups to cysteine thiols
# B1: OVA conjugated with only the crosslinking molecule: OVA carrying only the SMCC crosslinker (conjugate)
# chain: GSIGAASMEFCFDVFKELKVHHANENIFYCPIAIMSALAMVYLGAKDSTRTQINKVVRFDKLPGFGDSIEAQCGTSVNVHSSLRDILNQITKPNDVYSFSLASRLYAEERYPILPEYLQCVKELYRGGLEPINFQTAADQARELINSWVESQTNGIIRNVLQPSSVDSQTAMVLVNAIVFKGLWEKAFKDEDTQAMPFRVTEQESKPVQMMYQIGLFRVASMASEKMKILELPFASGTMSMLVLLPDEVSGLEQLESIINFEKLTEWTSSNVMEERKIKVYLPRMKMEEKYNLTSVLMAMGITDVFSSSANLSGISSAESLKISQAVHAAHAEINEAGREVVGSAEAGVDAASVSEEFRADHPFLFCIKHIATNAVLFFGRCVSP
# B2: ovalbumin (protein)
# chain: B1 chain
# notes: model antigen
# Experiments:
# circulating erythrocytes = assay: 8-arm PEG constructs binding to circulating erythrocytes after intravenous injection, flow cytometry; type: in vivo, mouse; conditions: flow cytometry
# Description: FIG. 17 presents experimental results depicting erythrocyte cell-surface half-life of 8-arm PEG-ERY1 (filled circles) and 8-arm PEG-MIS (empty boxes), determined by flow cytometry.
# human erythrocytes = assay: Erythrocyte binding of APC-peptide conjugates by flow cytometry; conditions: 1 μM APC-peptide conjugate, 37 C, 45 min
# Method: Peptides were ordered and custom-synthesized via standard fmoc solid-phase peptide synthesis from PolyPeptide Group (Strasbourg, France). 10 equivalents of peptide dissolved in 3 M guanidine-HCl were added to 2 mg/mL maleimide-activated APC (InnovaBiosciences, Cambridge, UK) in PBS. Following a 4 h incubation at 4° C., the reaction was desalted on a 2 mL ZEBA Desalting Column (Thermo Scientific) and stored at 4° C.
# Freshly isolated human blood was dissolved 100-fold into PBS supplemented with 20 mg/mL BSA. 5×10^5 erythrocytes were added to 150 μL of 1 μM APC-peptide conjugate and incubated at 37 C for 45 min. Cells were washed extensively in PBS+20 mg/mL BSA, and analyzed for APC fluorescence on a CyAn ADP Flow cytometer (Beckman Coulter).
# [1] = tested on: human erythrocytes (type A and B); assay: Binding of bacteria displaying peptide to cells, flow cytometry; conditions: peptide displayed on bacteria, 1 h at 4° C.
# Method: Method: To characterize specificity, individual sequenced clones were analyzed using cytometry for binding toward human erythrocytes (type A and B), mouse erythrocytes, HEK293T cells and HUVECs. For binding assays, 10^6 mammalian cells were scanned on an AccuriA6 after co-incubation with 5×10^7 bacteria for 1 h at 4° C. followed by three washes in HFS (5% HSA, 2% FBS in PBS). The percentage of cells with green bacteria bound was calculated using FLOWJO Software.
# glycophorin-A (GYPA) = molecular target: T1, glycophorin-A (GYPA) (Mus musculus, UniProt P14220); assay: Affinity pull-down with biotinylated ERY1 peptide and photoactivatable crosslinker, Western blot; type: binding; conditions: whole erythrocytes, UV crosslinking, streptavidin and anti-GYPA Western blot
# T1 construct: GYPA is naturally expressed and presented as part of a complex comprised of several membrane and cytoskeletal proteins; endogenous in cells; host or cells: whole mouse erythrocytes
# Method: Method: The ERY1 (H2N-WMVLPWLPGTLDGGSGCRG-CONH2) (SEQ ID NO:19) and mismatch (H2N-PLLTVGMDLWPWGGSGCRG-CONH2) (SEQ ID NO:20) peptides were synthesized using standard solid-phase f-moc chemistry on TGR resin. The peptide was cleaved from the resin in 95% tri-fluoroacetic acid, 2.5% ethanedithiol, 2.5% water, and precipitated in ice-cold diethyl ether. Purification was conducted on a Waters preparative HPLC-MS using a C18 reverse phase column.
# In brief, peptides were solubilized in PBS/DMF and reacted with 1.05 equivalents of Mts-atf-biotin overnight at 4° C. Following clarification of the reaction by centrifugation, biotinylated peptide was incubated with erythrocytes at in PBSA-50 for 1 h at 37° C., cells were washed twice in fresh PBS, and were UV irradiated at 365 nm for 8 min at room temperature. Cells were lysed by sonication and the lysate was purified using streptavidin-coated magnetic beads (Invitrogen). The eluate was run on an SDS-PAGE and transferred to a PVDF membrane, and immunoblotted with streptavidin-HRP (R&D Systems) or anti-mouse GYPA.
# [2] = mouse, in vivo, iv, 150 ug
# Method: The Swiss Vaud Veterinary Office previously approved all animal procedures. While under anesthesia with ketamine/xylasine, the mouse tail was warmed in 42° C. water and 150 μg of protein was injected in a 100 μL volume directly into the tail vein. Care was taken to ensure mice were kept at 37° C. while under anesthesia. Blood was drawn by a small scalpel incision on the base of the tail, and diluted 10-fold in PBSA-5, 10 mM EDTA, and stored at −20° C. until further analysis. Blood samples were analyzed for MBP concentration by sandwich ELISA. In brief, monoclonal mouse anti-MBP was used as the capture antibody, polyclonal rabbit anti-MBP as the primary antibody, and goat anti-rabbit-HRP as the secondary antibody. The data were analyzed in PRISM4 using standard pharmacokinetic compartmental analysis, using Eq. 1 and Eq. 2 A=A0e^−Kt Equation 1: Standard one-compartment model
# where A is the amount of free drug in the body at time t and A0 is the initial amount of drug at time zero. A=ae^−at+be^−βt Equation 2: Standard two-compartment model
# where A is the amount of free drug in the central compartment at time t.
# [3] = tested on: mouse erythrocytes (glycophorin-A on the erythrocyte surface); assay: Binding of OVA conjugates to erythrocytes in vitro, flow cytometry, equilibrium binding
# Description: To obtain strong and specific biophysical binding of an antigen to erythrocytes, we used a synthetic 12 amino acid peptide (ERY1) that we discovered by phage display to specifically bind to mouse glycophorin-A (Kontos and Hubbell, 2010). In this investigation, the model antigen OVA was used with a transgenic mouse strain (OT-I) whose CD8^+ T cell population expresses the T cell receptor specific for the MHC I immunodominant OVA peptide SIINFEKL (SEQ ID NO:3). The ERY1 peptide was chemically conjugated to OVA to create an OVA variant (ERY1-OVA) that binds mouse erythrocytes with high affinity and specificity (FIG. 8a). High-resolution confocal microscopy confirmed earlier observations concerning ERY1 binding (Kontos and Hubbell, 2010), namely localization to the cell membrane equatorial periphery, with no intracellular translocation of the ERY1-conjugated protein.
# erythrocytes (CD45−) = assay: In vivo binding to circulating erythrocytes after intravenous administration; set-up: species or system mouse
# Method: 150 μg of ERY1-OVA or OVA in 0.9% saline (B. Braun) in a volume of 100 μL was injected intravenously into the tail of 8-12 week old female C57BL/6 mice while under anesthesia with isoflurane. […] At predetermined time points, 5 μL of blood was taken from a small incision on the tail, diluted 100-fold into 10 mM EDTA in PBS, washed three times with PBS with 10 mg/mL BSA, and analyzed for OVA content by flow cytometry and ELISA. OVA was quantified by sandwich ELISA, using a mouse monoclonal anti-OVA antibody (Sigma) for capture, a polyclonal rabbit anti-OVA antibody (AbD SEROTEC) for detection, a goat anti-rabbit-IgG-HRP antibody (BioRad) for final detection, followed by TMB substrate (GE Life Sciences). Hematological characterization was performed on an ADVIVA 2120 Hematology System (Siemens). Erythrocyte-bound ERY1-GST was detected by incubating labeled cells with goat anti-GST (GE Healthcare Life Sciences), followed by incubation with AlexaFluor488 donkey anti-goat (Invitrogen), and analyzed by flow cytometry. For biodistribution studies, 20 μg of ERY1-APC or MIS-APC was injected intravenously into the tail vein of 8-12 week old female C57BL/6 mice as described above. Mice were sacrificed at predetermined time points, and the spleen, blood, and liver were removed. […]
molecule,measurement,setting,value
"8-arm PEG-MIS: 8-arm PEG conjugate harboring the non-specific MIS peptide (H-PLLTVGMDLWPWGGSGC(8‑arm PEG)RG-NH2; also: 8-arm PEG conjugate (multivalent), linkage to PEG not given here) [reference compound]",binding to circulating erythrocytes upon intravenous injection,circulating erythrocytes,not
GQSGHWHCQGPFANWVGSSGGS (Erythrocyte Binding Peptide) [ERY123],binding to human erythrocytes as conjugates of APC,human erythrocytes,bound to human erythrocytes
same,"binding to human erythrocytes, specificity as compared to 293T cells and HUVECs",[1],bound specifically to human erythrocytes
GQSGQFCTVIYNTYTCVPSSGSSGGS (Erythrocyte Binding Peptide) [ERY141],binding to human erythrocytes as conjugates of APC,human erythrocytes,bound to human erythrocytes
same,"binding to human erythrocytes, specificity as compared to 293T cells and HUVECs",[1],bound specifically to human erythrocytes
GQSGQPNSRWIYMTPLSPGIYRGSSGGS (Erythrocyte Binding Peptide) [ERY19],"binding to human erythrocytes, specificity as compared to 293T cells and HUVECs",[1],bound specifically to human erythrocytes
GQSGQSVWYSSRGNPLRCTGGSSGGS (Erythrocyte Binding Peptide) [ERY162],"binding to human erythrocytes, specificity as compared to 293T cells and HUVECs",[1],bound specifically to human erythrocytes
GQSGQTYFCTPTLLGQYCSVGSSGGS (Erythrocyte Binding Peptide) [ERY64],binding to human erythrocytes as conjugates of APC,human erythrocytes,bound to human erythrocytes
same,"binding to human erythrocytes, specificity as compared to 293T cells and HUVECs",[1],bound specifically to human erythrocytes
GQSGQYICTSAGFGEYCFIDGSSGGS (Erythrocyte Binding Peptide) [ERY59],"binding to human erythrocytes, specificity as compared to 293T cells and HUVECs",[1],bound specifically to human erythrocytes
"PLLTVGMDLWPW (Control peptide) [mismatch peptide, same amino acid residues as ERY1, scrambled, reference compound]",molecular target on the erythrocyte membrane / conjugation to erythrocyte proteins,glycophorin-A (GYPA),failed to conjugate to any erythrocyte proteins
"WMVLPWLPGTLD (not fully specified (C-terminus)) [ERY1, synthesized as H2N-…-CONH2]",molecular target on the erythrocyte membrane / conjugation to erythrocyte proteins,glycophorin-A (GYPA),glycophorin-A (GYPA)
maltose binding protein [wild-type MBP],half-life,[2],55.2 min
same,α half life,[2],24.6 min
same,β half life,[2],66.6 min
B1,binding to erythrocytes (flow cytometry),[3],did not display any measureable affinity
B2,binding to circulating eryptotic (annexin-V+) and healthy (annexin-V−) erythrocytes,erythrocytes (CD45−),nonbinding
